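Dose response: 5 concentrations. Exposure: 48 h. Format: 96-well plates. Endpoint: linear interpolation; highest concentration if not reached. GI50: concentration for 50% inhibition of growth. Definition used: TGI = concentration required for complete inhibition of growth.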
Columns and labels:
Assay in all cases: NCI-60 cell line screen, 48 h
SK-MEL-2 melanoma = tested on: SK-MEL-2 melanoma
COLO 205 colon = tested on: COLO 205 colon
U251 CNS = tested on: U251 CNS
A549 NSCLC = tested on: A549 NSCLC
OVCAR-3 ovarian = tested on: OVCAR-3 ovarian
NCI-H226 lung = tested on: NCI-H226 lung
HT29 colon = tested on: HT29 colon
OVCAR-4 ovarian = tested on: OVCAR-4 ovarian
UO-31 renal = tested on: UO-31 renal
OVCAR-5 ovarian = tested on: OVCAR-5 ovarian
K-562 leukemia = tested on: K-562 leukemia
HCC-2998 colon = tested on: HCC-2998 colon
SK-OV-3 ovarian = tested on: SK-OV-3 ovarian
SW-620 colon = tested on: SW-620 colon
PC-3 prostate = tested on: PC-3 prostate
NCI-H460 lung = tested on: NCI-H460 lung
MDA-MB-231 breast = tested on: MDA-MB-231 breast
HOP-62 NSCLC = tested on: HOP-62 NSCLC
OVCAR-8 ovarian = tested on: OVCAR-8 ovarian
MOLT-4 leukemia = tested on: MOLT-4 leukemia
RXF 393 renal = tested on: RXF 393 renal
BT-549 breast = tested on: BT-549 breast
SNB-75 CNS = tested on: SNB-75 CNS
NCI/ADR-RES ovarian = tested on: NCI/ADR-RES ovarian
CAKI-1 renal = tested on: CAKI-1 renal
SNB-19 CNS = tested on: SNB-19 CNS
MALME-3M melanoma = tested on: MALME-3M melanoma
NCI-H23 lung = tested on: NCI-H23 lung
RPMI-8226 leukemia = tested on: RPMI-8226 leukemia
ACHN renal = tested on: ACHN renal
HCT-15 colon = tested on: HCT-15 colon
EKVX NSCLC = tested on: EKVX NSCLC
UACC-257 melanoma = tested on: UACC-257 melanoma
CCRF-CEM leukemia = tested on: CCRF-CEM leukemia
KM12 colon = tested on: KM12 colon
HS 578T breast = tested on: HS 578T breast
A498 renal = tested on: A498 renal
MDA-MB-435 = tested on: MDA-MB-435
M14 melanoma = tested on: M14 melanoma
UACC-62 melanoma = tested on: UACC-62 melanoma
HCT-116 colon = tested on: HCT-116 colon
SF-539 CNS = tested on: SF-539 CNS
SK-MEL-28 melanoma = tested on: SK-MEL-28 melanoma
786-0 renal = tested on: 786-0 renal
MCF7 breast = tested on: MCF7 breast
SF-295 CNS = tested on: SF-295 CNS
DU-145 prostate = tested on: DU-145 prostate
LOX IMVI melanoma = tested on: LOX IMVI melanoma
SF-268 CNS = tested on: SF-268 CNS
SN12C renal = tested on: SN12C renal
T-47D breast = tested on: T-47D breast
SK-MEL-5 melanoma = tested on: SK-MEL-5 melanoma
NCI-H522 lung = tested on: NCI-H522 lung
TK-10 renal = tested on: TK-10 renal
HOP-92 NSCLC = tested on: HOP-92 NSCLC

Structure (SMILES): O=c1[nH]nc(Cc2ccccc2)n1/N=C/c1ccco1
- TGI (SK-MEL-2 melanoma): > 100000 nM
- TGI (COLO 205 colon): > 100000 nM
- TGI (U251 CNS): > 100000 nM
- TGI (A549 NSCLC): > 100000 nM
- TGI (OVCAR-3 ovarian): > 100000 nM
- TGI (NCI-H226 lung): > 100000 nM
- TGI (HT29 colon): > 100000 nM
- TGI (OVCAR-4 ovarian): > 100000 nM
- TGI (UO-31 renal): > 100000 nM
- TGI (OVCAR-5 ovarian): > 100000 nM
- TGI (K-562 leukemia): > 100000 nM
- TGI (HCC-2998 colon): > 100000 nM
- TGI (SK-OV-3 ovarian): > 100000 nM
- TGI (SW-620 colon): > 100000 nM
- TGI (PC-3 prostate): > 100000 nM
- TGI (NCI-H460 lung): > 100000 nM
- TGI (MDA-MB-231 breast): > 100000 nM
- TGI (HOP-62 NSCLC): > 100000 nM
- TGI (OVCAR-8 ovarian): > 100000 nM
- TGI (MOLT-4 leukemia): > 100000 nM
- TGI (RXF 393 renal): > 100000 nM
- TGI (BT-549 breast): > 100000 nM
- TGI (SNB-75 CNS): > 100000 nM
- TGI (NCI/ADR-RES ovarian): > 100000 nM
- TGI (CAKI-1 renal): > 100000 nM
- TGI (SNB-19 CNS): > 100000 nM
- TGI (MALME-3M melanoma): > 100000 nM
- TGI (NCI-H23 lung): > 100000 nM
- TGI (RPMI-8226 leukemia): > 100000 nM
- TGI (ACHN renal): > 100000 nM
- TGI (HCT-15 colon): > 100000 nM
- TGI (EKVX NSCLC): > 100000 nM
- TGI (UACC-257 melanoma): > 100000 nM
- TGI (CCRF-CEM leukemia): > 100000 nM
- TGI (KM12 colon): > 100000 nM
- TGI (HS 578T breast): > 100000 nM
- TGI (A498 renal): > 100000 nM
- TGI (MDA-MB-435): > 100000 nM
- TGI (M14 melanoma): > 100000 nM
- TGI (UACC-62 melanoma): > 100000 nM
- TGI (HCT-116 colon): > 100000 nM
- TGI (SF-539 CNS): > 100000 nM
- TGI (SK-MEL-28 melanoma): > 100000 nM
- TGI (786-0 renal): > 100000 nM
- TGI (MCF7 breast): > 100000 nM
- TGI (SF-295 CNS): > 100000 nM
- TGI (DU-145 prostate): > 100000 nM
- TGI (LOX IMVI melanoma): > 100000 nM
- TGI (SF-268 CNS): > 100000 nM
- TGI (SN12C renal): > 100000 nM
- TGI (T-47D breast): > 100000 nM

Structure (SMILES): CN(C)CCCOc1cccc(NC2=C(Cl)C(=O)C(Nc3cccc(OCCCN(C)C)c3)=C(Cl)C2=O)c1
- GI50 (SK-MEL-5 melanoma): 1000 nM
- TGI (SK-MEL-5 melanoma): 2370 nM
- GI50 (SK-MEL-2 melanoma): 1530 nM
- TGI (SK-MEL-2 melanoma): 3200 nM
- GI50 (COLO 205 colon): 1560 nM
- TGI (COLO 205 colon): 3340 nM
- GI50 (U251 CNS): 1570 nM
- TGI (U251 CNS): 2970 nM
- GI50 (A549 NSCLC): 1900 nM
- TGI (A549 NSCLC): 3500 nM
- GI50 (OVCAR-3 ovarian): 188 nM
- TGI (OVCAR-3 ovarian): 355 nM
- GI50 (NCI-H226 lung): 5850 nM
- TGI (NCI-H226 lung): 14100 nM
- GI50 (HT29 colon): 560 nM
- TGI (HT29 colon): 1590 nM
- GI50 (OVCAR-4 ovarian): 216 nM
- TGI (OVCAR-4 ovarian): 592 nM
- GI50 (UO-31 renal): 1450 nM
- TGI (UO-31 renal): 2760 nM
- GI50 (OVCAR-5 ovarian): 1830 nM
- TGI (OVCAR-5 ovarian): 3430 nM
- GI50 (K-562 leukemia): 307 nM
- TGI (K-562 leukemia): 1420 nM
- GI50 (HCC-2998 colon): 1340 nM
- TGI (HCC-2998 colon): 2810 nM
- GI50 (NCI-H522 lung): 172 nM
- TGI (NCI-H522 lung): 437 nM
- GI50 (SK-OV-3 ovarian): 5450 nM
- TGI (SK-OV-3 ovarian): 18300 nM
- GI50 (SW-620 colon): 276 nM
- TGI (SW-620 colon): 766 nM
- GI50 (PC-3 prostate): 1570 nM
- TGI (PC-3 prostate): 3290 nM
- GI50 (NCI-H460 lung): 1800 nM
- TGI (NCI-H460 lung): 3480 nM
- GI50 (MDA-MB-231 breast): 655 nM
- TGI (MDA-MB-231 breast): 1600 nM
- GI50 (HOP-62 NSCLC): 1930 nM
- TGI (HOP-62 NSCLC): 3680 nM
- GI50 (OVCAR-8 ovarian): 1570 nM
- TGI (OVCAR-8 ovarian): 3440 nM
- GI50 (MOLT-4 leukemia): 515 nM
- TGI (MOLT-4 leukemia): 1590 nM
- GI50 (RXF 393 renal): 885 nM
- TGI (RXF 393 renal): 2220 nM
- GI50 (BT-549 breast): 1570 nM
- TGI (BT-549 breast): 2930 nM
- GI50 (SNB-75 CNS): 1680 nM
- TGI (SNB-75 CNS): 3600 nM
- GI50 (NCI/ADR-RES ovarian): 2620 nM
- TGI (NCI/ADR-RES ovarian): 9690 nM
- GI50 (CAKI-1 renal): 1450 nM
- TGI (CAKI-1 renal): 2760 nM
- GI50 (SNB-19 CNS): 1780 nM
- TGI (SNB-19 CNS): 3320 nM
- GI50 (MALME-3M melanoma): 592 nM
- TGI (MALME-3M melanoma): 1360 nM
- GI50 (NCI-H23 lung): 1130 nM
- TGI (NCI-H23 lung): 2790 nM
- GI50 (RPMI-8226 leukemia): 1250 nM
- TGI (RPMI-8226 leukemia): 4540 nM
- GI50 (ACHN renal): 1780 nM
- TGI (ACHN renal): 3160 nM
- GI50 (HCT-15 colon): 911 nM
- TGI (HCT-15 colon): 2450 nM
- GI50 (EKVX NSCLC): 1190 nM
- TGI (EKVX NSCLC): 2540 nM
- GI50 (UACC-257 melanoma): 941 nM
- TGI (UACC-257 melanoma): 2280 nM
- GI50 (CCRF-CEM leukemia): 402 nM
- TGI (CCRF-CEM leukemia): 3260 nM
- GI50 (KM12 colon): 1320 nM
- TGI (KM12 colon): 2730 nM
- GI50 (HS 578T breast): 2110 nM
- TGI (HS 578T breast): 5400 nM
- GI50 (A498 renal): 1590 nM
- TGI (A498 renal): 3010 nM
- GI50 (MDA-MB-435): 1040 nM
- TGI (MDA-MB-435): 2440 nM
- GI50 (M14 melanoma): 1330 nM
- TGI (M14 melanoma): 2740 nM
- GI50 (UACC-62 melanoma): 1500 nM
- TGI (UACC-62 melanoma): 2950 nM
- GI50 (HCT-116 colon): 286 nM
- TGI (HCT-116 colon): 804 nM
- GI50 (SF-539 CNS): 1800 nM
- TGI (SF-539 CNS): 3220 nM
- GI50 (SK-MEL-28 melanoma): 1710 nM
- TGI (SK-MEL-28 melanoma): 3160 nM
- GI50 (786-0 renal): 763 nM
- TGI (786-0 renal): 2090 nM
- GI50 (MCF7 breast): 184 nM
- TGI (MCF7 breast): 408 nM
- GI50 (SF-295 CNS): 1730 nM
- TGI (SF-295 CNS): 3180 nM
- GI50 (TK-10 renal): 831 nM
- TGI (TK-10 renal): 2120 nM
- GI50 (DU-145 prostate): 765 nM
- TGI (DU-145 prostate): 2000 nM
- GI50 (LOX IMVI melanoma): 175 nM
- TGI (LOX IMVI melanoma): 346 nM
- GI50 (SF-268 CNS): 1700 nM
- TGI (SF-268 CNS): 3470 nM
- GI50 (HOP-92 NSCLC): 580 nM
- TGI (HOP-92 NSCLC): 1280 nM
- GI50 (SN12C renal): 345 nM
- TGI (SN12C renal): 865 nM
- GI50 (T-47D breast): 243 nM
- TGI (T-47D breast): 779 nM

Reference: PubChem BioAssay (NCI)
